Where a name gives a salt, the structure may show the parent alone.

From patent US6878736B1, “Histamine H3 receptor ligands” (James Black Foundation Limited, priority 1998, dated 2005) come the findings set out here.

Assay [1] has as its target T1, Histamine H3 receptor (Cavia porcellus, UniProt Q9JI35). Description: Histamine H3 radioligand binding assay, guinea pig cortex ([3H]-R-α-methylhistamine). The conditions noted are these: guinea pig cortex membranes, competition with 1 nM [3H]-R-α-methylhistamine; for Ki: read-out: pKi (Guinea pig cortex) (converted). As for the experimental part: The compounds of the invention were also tested in a guinea pig cortex binding assay, as follows:
Histamine H3 Radioligand Binding Assay—Guinea Pig Cortex
Male Dunkin Hartley guinea pigs (200-300 g) were used. The whole brain was removed and immediately placed in ice-cold 20 mM Hepes-NaOH buffer (pH7.4 at 21±3° C.). The cortex was dissected, weighed and homogenised in ice-cold 20 mM Hepes-NaOH buffer (pH7.4 at 21±3° C.) (50 ml/guinea-pig cortex) using a polytron (Kinematica AG; PT-DA 3020/2TS, 3×3 s). The homogenate was centrifuged at 100×g for 5 min and the supernatants pooled and stored at 4° C. The pellets were rehomogenised in fresh ice-cold buffer (80 ml) and recentrifuged (100×g for 5 min). The supernatants were pooled and pellets rehomogenised and recentrifuged (100×g for 5 min). All supernatants were pooled and centrifuged at 39,800×g for 12 min at 4° C. The final pellet was resuspended in 20 mM Hepes-NaOH buffer (pH7.4 at 21±3° C.) to a tissue concentration of 7.5 mg.ml^−1, using a teflon-in-glass homogeniser.
Guinea pig cortex membranes (400 μl) were incubated for 165 min at 21±3° C. in a final volume of 500 μl with 20 mM Hepes-NaOH buffer containing [^3H]-R-α-methylhistamine (50 μl; 1 nM) and competing compound. Total and non-specific binding of [^3H]-R-α-methylhistamine were defined using 50 μl of buffer and 50 μl of 10 μM thioperamide, respectively. The assay was terminated by rapid filtration through Whatman GF/B filters, presoaked (2 hr) in 0.1% polyethyleneimine, using a Brandell Cell Harvester. The filters were washed (3×3 ml) with ice-cold 50 mM Tris-HCl (pH6.9 at 21±3° C.), transferred into scintillation vials, 5 ml liquid scintillation cocktail was added and after 4 hours the bound radioactivity was determined by counting (4 min) in a Beckman liquid scintillation counter.
Data are analysed using GraphPad prism and the general equation for a competition curve with variable Hill slope (nH). [formula] where • X is the log concentration of competing compound, • Y is the binding obtained at each concentration of X, • pIC50 is the concentration of the competitor required to compete for half of the specific binding.
The IC50 is converted to the K1 using the Cheng Prusoff equation, K1=IC50/(1+(L/KD)) where • IC50 is the concentration of competitor required to compete for half the specific binding, • L is the radioligand concentration used, • KD is the equilibrium dissociation constant for the radioligand determined by saturation experiments.

Assay [2] deals with T1, Histamine H3 receptor. Description: Histamine H3 functional assay, guinea pig ileum (ileal longitudinal muscle, myenteric plexus). The conditions noted are these: antagonist affinity from rightward shift of R-(α)-methylhistamine E/[A] curves (Schild), typical variance ±0.15 log units; for Kb: read-out: pKb (Guinea pig ileum) (converted). On the set-up: species or system tissue. The method, then: • 1. J. Med. Chem 1994, 314. • 2. WO 97/29092 Histamine H3 Functional Assay—Guinea Pig Ileum
The biological activity of the compounds of the examples was measured using the ileal longitudinal muscle, myenteric plexus assay described by Paton and Aboo Zar (J. Physiol. 1968, 194, 13-33). Male Dunkin-Hartley guinea pigs (250-300 g) were employed. Briefly, a 50 cm portion of ileum proximal to the caecum was removed, after discarding the terminal 20 cm. Ileal segments (3 cm) were cleaned by passing Krebs-Henseleit buffer containing 3 μM mepyramine gently through the ileum using a Pasteur pipette (size: 13.8 cm length, 0.65 cm diameter). To avoid unnecessary damage to the tissue, Krebs-Henseleit buffer was passed through the ileal segment, while it was lying horizontally on a petri dish. Therefore, the ileum was not over-distended and the buffer flowed through with ease. Each segment was then passed over a Pasteur pipette and the longitudinal muscle layer and adhering myenteric plexus was teased away using moist cotton wool, by stroking tangentially away from the mesenteric attachment. The tissues were suspended in 20 ml organ baths containing Krebs-Henseleit buffer at 37±1° C. and gassed with […]. The tissues were ligated to two parallel stainless steel wires, situated between two platinum electrodes (0.76 cm length, 0.06 cm diameter). All measurements were recorded isometrically (Grass FTO3 transducer). Following an initial loading tension of 1 g, the tissues were stimulated with electrical pulses at a frequency of 0.1 Hz and a pulse duration of 0.5 msec, as described by Kosterlitz & Watt (Br. J. Pharmacol. 1968, 266276). Initially, the tissues were stimulated at supramaximal (1.3 fold times maximal) voltage for a period of 30 min and then the tissues were washed and re-stimulated. A “sighter dose” of the selective histamine H3-receptor agonist, R-(α)-methylhistamine (0.3 μM) (Arrang et al. Nature, 1987, 117-123), was administered. Upon generation of response, the “sighter dose” was removed from the tissues by “washout” (6 washes over 60 min) and during this period the electrical stimulation was switched off. The tissues were then re-stimulated and allowed to stabilise prior to the addition of drug treatments, which were allocated on a randomised block basis to the organ baths. Following the incubation period, a single cumulative E/[A] curve was obtained. The experimental E/[A] curve data was expressed as the percentage inhibition of the peak height of electrically-stimulated contraction. Antagonist affinity values were calculated from the degree of rightward shift of the R-(α)-methylhistamine E/[A] curves using Schild's methods (Arunlakshana & Schild Br. J. Pharmacol. 1959, 48-58). Typical variance in this assay is ±0.15 log units.

T1 sequence (Q9JI35 whole entry): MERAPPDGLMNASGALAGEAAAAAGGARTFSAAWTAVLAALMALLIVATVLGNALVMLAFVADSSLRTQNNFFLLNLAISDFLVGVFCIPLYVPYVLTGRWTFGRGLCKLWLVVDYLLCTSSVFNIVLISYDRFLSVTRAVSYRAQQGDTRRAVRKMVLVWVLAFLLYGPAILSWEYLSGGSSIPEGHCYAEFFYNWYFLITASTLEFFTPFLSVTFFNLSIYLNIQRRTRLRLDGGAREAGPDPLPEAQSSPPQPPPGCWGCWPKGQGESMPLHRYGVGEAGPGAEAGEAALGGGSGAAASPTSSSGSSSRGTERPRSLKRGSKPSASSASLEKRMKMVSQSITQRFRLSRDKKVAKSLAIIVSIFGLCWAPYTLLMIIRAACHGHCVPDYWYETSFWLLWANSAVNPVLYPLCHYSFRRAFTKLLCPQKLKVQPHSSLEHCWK

For `N=C(N)N(CCCCCCN1CCCC1)CCC12CC3CC(CC(C3)C1)C2` [Example 78, N-(2-Adamantan-1-yl-ethyl)-N-(6-pyrrolidin-1-yl-hexyl)-guanidine bis-hydrochloride], the Ki at Histamine H3 receptor [1] was 79.4 nM. Also, the Kb at Histamine H3 receptor [2] was 31.6 nM.

With `N=C(N)N(CCCCCCN1CCCCC1)Cc1ccc(Cl)cc1` [Example 72, N-(4-Chlorobenzyl)-N-(6-piperidin-1-yl-hexyl)-guanidine bis-hydrochloride], the Ki on Histamine H3 receptor [1] was 5.01 nM. For the same compound, on Histamine H3 receptor [2], the Kb is 3.16 nM. In the case of `N=C(NCCCN1CCCC1)NCc1ccc(C(F)(F)F)cc1` [Example 5, N-(4-(Trifluoromethyl)benzyl)-N′-(3-pyrrolidin-1-yl-propyl)-guanidine bis-hydrochloride], the Kb on Histamine H3 receptor [2] was 794 nM. On to `N=C(NCCCCCN1CCCC1)NCCc1ccc(Cl)cc1` [Example 25, N-(2-(4-Chlorophenyl)ethyl)-N′-(5-pyrrolidin-1-yl-pentyl)-guanidine bis-hydrochloride], for which the Ki on Histamine H3 receptor [1] is 7.94 nM. Also, the Kb at Histamine H3 receptor [2] was 79.4 nM. For `C[C@H](NC(=N)NCCCCN1CCCC1)C1CCCCC1` [Example 45, N-(1(S)-Cyclohexyl-ethyl)-N′(4-pyrrolidin-1-yl-butyl)-guanidine bis-hydrochloride], the Ki on Histamine H3 receptor [1] is 3.98 nM. Moreover, the Kb at Histamine H3 receptor [2] was 31.6 nM. On to `N=C(NCCCN1CCCC1)NCc1ccccc1` [Example 8, N-Benzyl-N′-(3-pyrrolidin-1-yl-propyl)-guanidine bis-hydrochloride], for which the Kb at Histamine H3 receptor [2] was 631 nM. On to `CN1CCC[C@H]1CCCN(CCCN1C(=O)c2ccccc2C1=O)S(=O)(=O)NCc1ccc(Cl)cc1` [Example 125, N-(4-Chlorobenzyl)-N′-(3-phthalimido-propyl)-N′-(3-(1-methyl-pyrrolidin-2S-yl)propyl)-sulfamide], for which, on Histamine H3 receptor [1], the Ki was 316 nM. Also, the Kb on Histamine H3 receptor [2] was greater than 3160 nM. “N-Adamantan-1-yl-methyl-N′-(3-pyrrolidin-1-yl-propyl)-guanidine bis-hydrochloride [Example 28]”: on Histamine H3 receptor [1], the “pKi (Guinea pig cortex)” value is 7.5. Besides, the “pKb (Guinea pig ileum)” value at Histamine H3 receptor [2] is 6.7. `N=C(NCCCCN1CCCC1)NCCCC12CC3CC(CC(C3)C1)C2` [Example 36, N-(3-Adamantan-1-yl-propyl)-N′-(4-pyrrolidin-1-yl-butyl)-guanidine bis-hydrochloride]: the Ki on Histamine H3 receptor [1] was 50.1 nM. For the same compound, at Histamine H3 receptor [2], the Kb is 63.1 nM. Turning to `N=C(NCCCN1CCCC1)NCc1ccc(Cl)cc1` [Example 2, N-(4-Chlorobenzyl)-N′-(3-pyrrolidin-1-yl-propyl)-guanidine bis-hydrochloride], the Ki at Histamine H3 receptor [1] was 50.1 nM. For the same compound, the Kb on Histamine H3 receptor [2] was 398 nM. Take “N-Adamantan-1-yl-methyl-N′-(4-pyrrolidin-1-yl-butyl)-guanidine bis-hydrochloride [Example 29]”: the “pKi (Guinea pig cortex)” value at Histamine H3 receptor [1] came to 8.4. The “pKb (Guinea pig ileum)” value on Histamine H3 receptor [2] was 7.7. `CN1CCC[C@H]1CCCNS(=O)(=O)CCCc1ccc(Cl)cc1` [Example 103, N-(3-(1-Methyl-pyrrolidin-2S-yl)-propyl)-3-(4-chlorophenyl)-propanesulfonamide]: at Histamine H3 receptor [1], the Ki is 126 nM. Further, the Kb at Histamine H3 receptor [2] was 316 nM.

Consider `N=C(NCCCCCN1CCCC1)NCCCC12CC3CC(CC(C3)C1)C2` [Example 38, N-(3-Adamantan-1-yl-propyl)-N′-(5-pyrrolidin-1-yl-pentyl)-guanidine bis-hydrochloride], for which the Ki on Histamine H3 receptor [1] was 31.6 nM. The Kb on Histamine H3 receptor [2] was 63.1 nM. As to `CN1CCC[C@H]1CCCNS(=O)(=O)Nc1ccc(Cl)cc1` [Example 112, N-(4-Chlorophenyl)-N′-(3-(1-methyl-pyrrolidin-2S-yl)-propyl)-sulfamide], the Ki on Histamine H3 receptor [1] is 398 nM. Also, at Histamine H3 receptor [2], the Kb was 1580 nM. On the same counts, the results for `O=S(=O)(NCCN1CCCCC1)c1ccc2ccccc2c1` [Example 84, N-(2-Piperidin-1-yl-ethyl)-2-naphthalenesulfonamide] are 501 nM and 794 nM. Take `Cl.Cl.N=C(NCCCCCN1CCCCCC1)NCC12CC3CC(CC(C3)C1)C2` [Example 61, N-Adamantan-1-yl-methyl-N′-(5-azepan-1-yl-pentyl)-guanidine bis-hydrochloride]: the “pKi (Guinea pig cortex)” value on Histamine H3 receptor [1] stood at 8.1. For the same compound, on Histamine H3 receptor [2], the “pKb (Guinea pig ileum)” value is on record as 7.8.

Regarding `N=C(NCCCN1CCCC1)NCc1ccc(Br)cc1` [Example 9, N-(4-Bromobenzyl)-N′-(3-pyrrolidin-1-yl-propyl)-guanidine bis-hydrochloride], at Histamine H3 receptor [1], the Ki was 5.01 nM. Besides, on Histamine H3 receptor [2], the Kb is 316 nM. For the compound `CNC(=NCCCN1CCCC1)NCc1ccc(Cl)cc1` [Example 64, N-(4-Chlorobenzyl)-N′-methyl-N″-(3-pyrrolidin-1-yl-propyl)-guanidine], on Histamine H3 receptor [1], the Ki was 63.1 nM. In addition, the Kb at Histamine H3 receptor [2] was 631 nM. Turning to `COc1ccc(C/N=C(\N)NCCCN2CCCC2)cc1` [Example 3, N-(4-Methoxybenzyl)-N′-(3-pyrrolidin-1-yl-propyl)-guanidine bis-hydrochloride], the Ki on Histamine H3 receptor [1] was 79.4 nM. For the same compound, at Histamine H3 receptor [2], the Kb is 794 nM.

With `N=C(NCCCc1ccc(Cl)cc1)NCCCN1CCCC1` [Example 21, N-(3-(4-Chlorophenyl)propyl)-N′-(3-pyrrolidin-1-yl-propyl)-guanidine bis-hydrochloride], on Histamine H3 receptor [1], the Ki is 50.1 nM. Besides, the Kb on Histamine H3 receptor [2] was 158 nM. Take `N=C(NCCCCCN1CCCC1)NCCC12CC3CC(CC(C3)C1)C2` [Example 37, N-(2-Adamantan-1-yl-ethyl)-N′-(5-pyrrolidin-1-yl-pentyl)-guanidine bis-hydrochloride]: on Histamine H3 receptor [1], the Ki is 12.6 nM. Also, the Kb at Histamine H3 receptor [2] is 25.1 nM.

With `N=C(N)N(CCCCCCCCCN1CCCC1)Cc1ccc(Cl)cc1` [Example 80, N-(4-Chlorobenzyl)-N-(9-pyrrolidin-1-yl-nonyl)-guanidine bis-hydrochloride], at Histamine H3 receptor [2], the Kb was 10 nM. For `N=C(N)N(CCCCN1CCCC1)Cc1ccc(Cl)cc1` [Example 68, N-(4-Chlorobenzyl)-N-(4-pyrrolidin-1-yl-butyl)-guanidine bis-hydrochloride], the Kb on Histamine H3 receptor [2] was 50.1 nM. On the same count and under the same terms, with `N=C(N)N(CCCCCCCCN1CCCC1)Cc1ccc(Cl)cc1` [Example 79, N-(4-Chlorobenzyl)-N-(8-pyrrolidin-1-yl-octyl)-guanidine bis-hydrochloride] the figure was 7.94 nM.

In the case of `N=C(N)N(CCCCCCCN1CCCC1)Cc1ccc(Cl)cc1` [Example 71, N-(4-Chlorobenzyl)-N-(7-pyrrolidin-1-yl-heptyl)-guanidine bis-hydrochloride], the Kb at Histamine H3 receptor [2] is 3.98 nM.
